Results: patent US20160311826A1, “SGC STIMULATORS” (IRONWOOD PHARMACEUTICALS, INC., priority 2013, published 2016)

System: lambs with acute pulmonary hypertension
Experiment: not given
Conditions: after inhaling the microparticles; cited from earlier work

Row | Compound | magnitude and duration of pulmonary vasodilation induced by iNO
1 | Nc1nc(-c2nn(Cc3ccccc3F)c3ncccc23)nc(N)c1N1CCOCC1 [BAY 41-8543] | augmented

Same assay, conditions: inhaled microparticles after ODQ; cited from earlier work

Row | Compound | pulmonary vasodilation and transpulmonary cGMP release after treatment with ODQ
2 | O=C(O)CCCCN(CCc1ccccc1OCc1ccc(CCc2ccccc2)cc1)Cc1ccc(C(=O)O)cc1 [BAY 58-2667] | greatly enhanced

Same assay, conditions: inhaled microparticles with excipients; awake lambs, U-46619 infusion; cited from earlier work

Row | Compound | effect on mean arterial pressure | pulmonary vasodilation | transpulmonary cGMP release
3 | Nc1nc(-c2nn(Cc3ccccc3F)c3ncccc23)ncc1C1CC1 [BAY 41-2272] | without significant effect on mean arterial pressure | dose dependent pulmonary vasodilation | increased transpulmonary cGMP release
4 | Nc1nc(-c2nn(Cc3ccccc3F)c3ncccc23)nc(N)c1N1CCOCC1 [BAY 41-8543] | without significant effect on mean arterial pressure | dose dependent pulmonary vasodilation | increased transpulmonary cGMP release
5 | O=C(O)CCCCN(CCc1ccccc1OCc1ccc(CCc2ccccc2)cc1)Cc1ccc(C(=O)O)cc1 [BAY 58-2667] | without significant effect on mean arterial pressure | dose dependent pulmonary vasodilation | increased transpulmonary cGMP release

Same assay, conditions: inhaled microparticles; cited from earlier work

Row | Compound | systemic arterial oxygenation
6 | Nc1nc(-c2nn(Cc3ccccc3F)c3ncccc23)nc(N)c1N1CCOCC1 [BAY 41-8543] | increased systemic arterial oxygenation
7 | O=C(O)CCCCN(CCc1ccccc1OCc1ccc(CCc2ccccc2)cc1)Cc1ccc(C(=O)O)cc1 [BAY 58-2667] | increased systemic arterial oxygenation

Same assay, conditions: intravenous administration; cited from earlier work

Row | Compound | effect on pulmonary vasodilator effect of iNO
8 | O=c1onc2cnc3ccccc3n12 [ODQ, 1H-[1,2,4]oxadiazolo[4,3-a]quinoxalin-1-one] | markedly reduced the pulmonary vasodilator effect of iNO

Molecular target: T1, human recombinant soluble guanylate cyclase enzyme α1β1 (h sGC) (Homo sapiens, UniProt Q02108+Q02153)
T1 construct: purchased Enzo Life Sciences ALX-201-177
T1 sequence (Q02108 1-690): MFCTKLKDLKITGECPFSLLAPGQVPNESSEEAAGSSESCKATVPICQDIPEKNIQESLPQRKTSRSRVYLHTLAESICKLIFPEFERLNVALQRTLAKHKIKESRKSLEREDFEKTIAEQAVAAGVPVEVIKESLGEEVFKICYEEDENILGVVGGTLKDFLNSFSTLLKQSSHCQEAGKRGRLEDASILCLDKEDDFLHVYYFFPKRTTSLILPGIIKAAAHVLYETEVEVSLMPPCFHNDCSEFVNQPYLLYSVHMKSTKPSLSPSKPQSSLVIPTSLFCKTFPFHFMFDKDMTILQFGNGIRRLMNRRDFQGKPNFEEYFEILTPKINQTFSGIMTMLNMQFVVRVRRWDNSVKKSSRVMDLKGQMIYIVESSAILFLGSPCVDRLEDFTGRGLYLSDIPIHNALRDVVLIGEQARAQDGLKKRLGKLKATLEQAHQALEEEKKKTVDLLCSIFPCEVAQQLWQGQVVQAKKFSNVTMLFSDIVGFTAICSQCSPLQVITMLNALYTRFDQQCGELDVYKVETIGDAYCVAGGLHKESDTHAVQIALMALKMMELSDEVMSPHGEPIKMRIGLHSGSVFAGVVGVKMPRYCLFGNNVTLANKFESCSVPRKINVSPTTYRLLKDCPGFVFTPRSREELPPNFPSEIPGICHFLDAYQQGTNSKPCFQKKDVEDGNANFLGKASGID
T1 sequence (Q02153 1-619): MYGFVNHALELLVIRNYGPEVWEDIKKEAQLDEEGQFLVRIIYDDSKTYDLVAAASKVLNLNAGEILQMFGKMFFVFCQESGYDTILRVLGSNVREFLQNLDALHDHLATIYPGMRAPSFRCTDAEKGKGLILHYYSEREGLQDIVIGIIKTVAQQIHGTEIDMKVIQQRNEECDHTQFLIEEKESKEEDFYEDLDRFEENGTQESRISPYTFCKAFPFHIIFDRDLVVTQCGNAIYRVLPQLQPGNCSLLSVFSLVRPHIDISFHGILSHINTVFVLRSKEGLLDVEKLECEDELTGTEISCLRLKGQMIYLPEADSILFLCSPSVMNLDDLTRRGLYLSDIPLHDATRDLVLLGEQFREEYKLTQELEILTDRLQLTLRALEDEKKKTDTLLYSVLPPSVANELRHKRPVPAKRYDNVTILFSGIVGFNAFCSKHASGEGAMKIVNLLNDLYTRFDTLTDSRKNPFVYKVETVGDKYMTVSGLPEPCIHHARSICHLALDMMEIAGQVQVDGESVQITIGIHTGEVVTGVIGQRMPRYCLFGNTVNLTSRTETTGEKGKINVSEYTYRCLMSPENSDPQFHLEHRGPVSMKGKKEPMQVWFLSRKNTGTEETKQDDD
Experiment: Purified human recombinant sGC α1β1 enzyme assay in the presence of DETA-NONOate (cGMP HTRF)
Assay type: biochemical
Conditions: not given
Description: Purified human recombinant soluble guanylate cyclase enzyme α1β1 (h sGC) obtained from Enzo Life Sciences (P/N: ALX-201-177) was used to evaluate the activity of test compounds. The assay reactions contained 0.1 M Tris (pH 8.0), 0.5 mg/mL BSA, 2 mM DTT, 4 mM MgCl2, 30 uM DETA NONOate (Enzo Life Science P/N: ALX-430-014), and 12.5 ng/ml human soluble guanylate cyclase enzyme. […] Guanosine 5′-triphosphate (Sigma-Aldrich P/N: G8877) was added to a final concentration of 300 μM and enzyme reactions were incubated (100 μL, 384-well plate format) at 37° C. for 20 minutes. The controls contained 3% DMSO (low control), or 30 uM of Compound Y (high control). After the 20 minute incubation, the reaction was stopped with the addition of 100 μL of ice cold 20% acetic acid.
cGMP concentrations in all samples were determined using the cGMP HTRF (Cisbio P/N: 62GM2PEC) assay per manufacturer's instructions. A cGMP standard curve was fit using a 4-parameter fit (log(inhibitor) vs. response—variable slope) using GraphPad Prism Software v.6. Samples were diluted appropriately to ensure that values fell within the linear range of the standard curve. The EC50 was interpolated from the curve fit and is defined as the concentration at which the compound elicits 50% of the maximal response of the 30 uM of Compound Y, the high control compound.

Row | Compound | EC50 [µM]
9 | CCOC(=O)C1(C)C(=O)Nc2nc(-c3nn(Cc4ccccc4F)c(=O)n3C)nc(N)c21 (stereo not drawn) [Compound I-29] | 2 to 5
10 | CCOC(=O)C1(C)C(=O)Nc2nc(-c3nc(OC)n(Cc4ccccc4F)n3)nc(N)c21 (stereo not drawn) [Compound I-30] | 2 to 5

Same assay, conditions: 30 uM DETA NONOate; concentration eliciting 50% of high control response (30 uM Compound Y); read-out: sGC_Enz_HTRF_a1b1 EC50 Abs

Row | Compound | EC50 [µM]
11 | CC1(C(N)=O)C(=O)Nc2nc(-c3nn(Cc4ccccc4F)c(=O)[nH]3)nc(N)c21 (stereo not drawn) [Compound I-10] | > 30
12 | COc1nc(-c2nc(N)c3c(n2)NC(=O)C3(C)C(N)=O)nn1Cc1ccccc1F (stereo not drawn) [Compound I-17] | > 5
13 | Cn1c(-c2nc(N)c3c(n2)NC(=O)C3(C)C(N)=O)nn(Cc2ccccc2F)c1=O (stereo not drawn) [Compound I-18] | > 5
14 | CCOC(=O)C1(C)C(=O)Nc2nc(-c3nn(Cc4ccccc4F)c(=O)[nH]3)nc(N)c21 (stereo not drawn) [Compound I-21] | > 5
15 | COc1nc(-c2nc(N)c3c(n2)NC(=O)C3(C)C(=O)NC2CC2)nn1Cc1ccccc1F (stereo not drawn) [Compound I-37] | 2 to 5
16 | Cn1c(-c2nc(N)c3c(n2)NC(=O)C3(C)C(=O)NC2CC2)nn(Cc2ccccc2F)c1=O (stereo not drawn) [Compound I-38] | < 2
17 | CC1(C(N)=O)C(=O)Nc2nc(-c3cc(O)n(Cc4ccccc4F)n3)nc(N)c21 (stereo not drawn) [Compound I-48] | > 5
18 | Fc1cnc(-c2cc(OC(F)F)n(Cc3cccc(F)c3F)n2)nc1 [Compound I-59] | > 5

The remaining lines, values ahead:

Row | EC50 [µM] | Compound
19 | > 5 | O=c1[nH]c(-c2cc(OC(F)F)n(Cc3ccccc3F)n2)ncc1F [Compound I-4]
20 | > 5 | COc1cc(-c2ncc(F)c(=O)[nH]2)nn1Cc1ccccc1F [Compound I-5]
21 | > 5 | COc1cc(-c2nccc(N)n2)nn1Cc1ccccc1F [Compound I-6]
22 | > 5 | COc1cc(-c2ncc(F)c(NCC(=O)O)n2)nn1Cc1ccccc1F [Compound I-9]
23 | 2 to 5 | COc1cc(-c2ncc(F)c(NCCO)n2)nn1Cc1ccccc1F [Compound I-13]
24 | 2 to 5 | COc1cc(-c2ncc(F)c(NCc3cc(=O)[nH]o3)n2)nn1Cc1ccccc1F [Compound I-19]
25 | < 2 | COc1cc(-c2ncc(F)c(NCC(O)(C(N)=O)C(F)(F)F)n2)nn1Cc1ccccc1F (stereo not drawn) [Compound I-20]
26 | 2 to 5 | COc1cc(-c2ncc(F)c(NCC(O)CO)n2)nn1Cc1ccccc1F (stereo not drawn) [Compound I-64]
27 | 2 to 5 | COc1cc(-c2ncc(F)c(N3CCC[C@H](C)[C@@H]3C(=O)O)n2)nn1Cc1ccccc1F [Compound I-70]
